This passage reports IC50 results from patent US20200369626A1 (Washington University, priority 2019, published 2020).

Like-named read-outs stand apart in the source and are kept apart here. Bounds are passed on as bounds.

For the assay, the target named is T1, S1PR2 (Homo sapiens, UniProt O95136).
T1 construct: purchased
Briefly: competitive [^32P]S1P binding assay on cell membranes, S1PR2.

Where [1] appears, read: [^32P]S1P competition, IC50 ± SD, second Table 1, read-out: S2PR2 IC50.
[2] abbreviates: [^32P]S1P competition, read-out: IC50 value, S1PR2 binding.
Setting [3] is: [^32P]S1P competition, IC50 ± SD, Table 1 (2a-l, 4a-h), read-out: IC50 (binding potency toward S1PR2).

T1 sequence (O95136 whole entry): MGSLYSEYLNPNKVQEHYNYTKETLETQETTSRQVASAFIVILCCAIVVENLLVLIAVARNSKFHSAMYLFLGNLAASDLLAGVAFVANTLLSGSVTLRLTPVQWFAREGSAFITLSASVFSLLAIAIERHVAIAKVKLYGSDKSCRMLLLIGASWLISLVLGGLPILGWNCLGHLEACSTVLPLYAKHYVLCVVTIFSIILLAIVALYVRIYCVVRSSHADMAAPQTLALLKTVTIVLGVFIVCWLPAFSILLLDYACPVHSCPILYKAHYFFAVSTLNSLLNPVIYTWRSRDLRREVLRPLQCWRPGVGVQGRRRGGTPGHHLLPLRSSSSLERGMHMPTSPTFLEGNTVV

For orientation: IC50 means the concentration at which inhibition is half-maximal. Turning to `CCOc1ccc(C(=O)Cn2c(=O)n(CCCC(=O)N3CCCC3)c(=O)c3cc(Cl)ccc32)cc1Cl` [TZ62-052], where the note is “Table 5, read-out: IC50 S1PR2”, the IC50 was above 1000 nM. The same measure, in the same setting: with `COc1cc(OC)c(NC(=O)Cn2c(=O)n(CC(=O)NCCOCCO)c(=O)c3ccccc32)cc1Cl` [TZ59-132, N-(5-Chloro-2,4-dimethoxyphenyl)-2-(3-(2-((2-(2-hydroxyethoxy)ethyl)amino)-2-oxoethyl)-2,4-dioxo-3,4-dihydroquinazolin-1(2H)-yl)acetamide] the figure was 91.4 ± 17.6 nM. The same measure, in the same setting: for `CC(C)CC1(O)CC(C(=O)Nc2cc(Oc3ccc(F)cc3)cc(Oc3ccc(S(C)(=O)=O)cc3)c2)C1` (centres unmarked) [TZ57-121] the value was 654 ± 349 nM. In the case of `CCC(CC)CC1(O)CCN(C(=O)Nc2cc(OCCF)cc(Oc3ccc(F)cc3)c2)CC1` [Compound 11a, 4-(2-Ethylbutyl)-N-(3-(2-fluoroethoxy)-5-(4-fluorophenoxy)phenyl)-4-hydroxypiperidine-1-carboxamide], the IC50 is, setting by setting: under setting [1], above 1000 nM; under setting [2], above 1000 nM. Turning to `CCC(CC)CC1(O)CCN(C(=O)Nc2cc(Oc3ccc(C(=O)NC)cc3)c3c(c2)oc2ccc(F)cc23)CC1` [TZ51-011], the IC50 (Table 5, read-out: IC50 S1PR2) is 472 ± 244 nM. For `COc1cc(OC)c(NC(=O)Cn2c(=O)n(CCF)c(=O)c3ccccc32)cc1Cl` [TZ62-083], the IC50 (Table 5, read-out: IC50 S1PR2) was above 1000 nM. Still for that read-out and setting: for `CC(C)C1(O)CCN(C(=O)Nc2cc(Oc3ccc(S(C)(=O)=O)cc3)cc(C(F)(F)F)c2)CC1` [TZ51-045] the value was above 1000 nM. Regarding `COc1cccc(NC(=O)Cn2c(=O)c3ccccc3n(CC(=O)Nc3cc(Cl)c(OC)cc3OC)c2=O)c1` [Compound 2b], the IC50 under setting [3] was determined as 39.1 ± 7 nM. For the compound `CCOc1ccc(C(=O)Cn2c(=O)n(CC)c(=O)c3ccccc32)cc1Cl` [TZ62-099], where the note is “Table 5, read-out: IC50 S1PR2”, the IC50 is above 1000 nM. Consider `CCC(CC)CC1(O)CCN(C(=O)Nc2cc(Oc3ccc(F)cc3)cc(OC3CCN(S(C)(=O)=O)CC3)c2)CC1` [TZ57-081], for which the IC50 (Table 5, read-out: IC50 S1PR2) was 292 ± 121 nM. As to `CCn1c(=O)c2ccccc2n(CC(=O)Nc2cc(Cl)c(OC)cc2OC)c1=O` [TZ62-087], for the setting “Table 5, read-out: IC50 S1PR2”, the IC50 is above 1000 nM. The same measure, in the same setting: for `CCC(CC)CC1(O)CCN(C(=O)Nc2cc(C#N)cc(Oc3ccc(S(C)(=O)=O)cc3)c2)CC1` [TZ59-014] the value was above 1000 nM; for `CCOc1ccc(C(=O)Cn2c(=O)n(C)c(=O)c3ccccc32)cc1Cl` [TZ62-098], above 1000 nM. On the same count and under the same terms, for `CC(C)C(=O)C1CCN(C(=O)Nc2cc(Oc3ccc(F)cc3)cc(Oc3ccc(S(C)(=O)=O)cc3)c2)CC1` [TZ57-063] the value was above 1000 nM.

As to `CCC(CC)CC1(O)CCN(C(=O)Nc2cc(C(=O)c3ccc(C(=O)NC)cc3)cc(C(F)(F)F)c2)CC1` [TZ59-089], the IC50 (Table 5, read-out: IC50 S1PR2) is above 1000 nM. On the same count and under the same terms, for `CCC(CC)CC1(O)CCN(C(=O)Nc2cc(OCCF)cc(C(F)(F)F)c2)CC1` [TZ59-044] the value was above 1000 nM.

In the case of `CCC(CC)CC1(O)CCN(C(=O)Nc2cc(Oc3ccc(F)cc3)cc(N3CCN(C)CC3)c2)CC1` [TZ57-013], the IC50 (Table 5, read-out: IC50 S1PR2) was above 1000 nM. In the case of `CCC(CC)CC1(O)CCN(C(=O)Nc2cc(Oc3ccc(F)cc3)cc(N3CCN(C)CC3)c2)CC1` [Compound 17a, 4-(2-Ethylbutyl)-N-(3-(4-fluorophenoxy)-5-(4-methylpiperazin-1-yl)phenyl)-4-hydroxypiperidine-1-carboxamide], the IC50 under setting [1] was above 1000 nM. With `COc1ccc(C(=O)Cn2c(=O)n(CCCC(=O)NC3CCCC3)c(=O)c3cc(Cl)ccc32)cc1Cl` [TZ62-039], the IC50 (Table 5, read-out: IC50 S1PR2) is above 1000 nM. Still for that read-out and setting: with `CCOc1ccc(C(=O)Cn2c(=O)n(CCF)c(=O)c3ccccc32)cc1Cl` [TZ62-100] the figure was above 1000 nM.

In the case of `COc1cc(OC)c(NC(=O)Cn2c(=O)n(CC(=O)NCCO)c(=O)c3ccccc32)cc1Cl` [TZ59-130, N-(5-Chloro-2,4-dimethoxyphenyl)-2-(3-(2-((2-hydroxyethyl)amino)-2-oxoethyl)-2,4-dioxo-3,4-dihydroquinazolin-1(2H)-yl)acetamide], under “Table 5, read-out: IC50 S1PR2”, the IC50 came out at 66.6 ± 10.3 nM. On the same count and under the same terms, for `CCC(CC)CC1(O)CCN(C(=O)Nc2cc(Oc3ccc(S(C)(=O)=O)cc3)cc(Sc3ccc(F)cc3)c2)CC1` [TZ57-155] the value was 143 ± 30 nM; for `COc1cc(OC)c(NC(=O)Cn2c(=O)n(CC(=O)N(C)C)c(=O)c3ccccc32)cc1Cl` [TZ59-136, 2-(1-(2-((5-Chloro-2,4-dimethoxyphenyl)amino)-2-oxoethyl)-2,4-dioxo-1,4-dihydroquinazolin-3(2H)-yl)-N,N-dimethylacetamide], 175 ± 13 nM. Turning to `COc1ccc2c(c1)c(=O)c1ccccc1n2CC(=O)Nc1cc(Cl)c(OC)cc1OC` [TZ65-032], the IC50 (Table 5, read-out: IC50 S1PR2) is above 1000 nM. With `CCOc1ccc(C(=O)Cn2c(=O)n(CCCC(=O)NC3CCCC3)c(=O)c3ccccc32)cc1Cl` [TZ62-048], for the setting “Table 5, read-out: IC50 S1PR2”, the concentration for half-maximal inhibition (IC50) is 85 ± 10 nM.

Turning to `CN1CCN(c2cc(Oc3ccc(F)cc3)cc([N+](=O)[O-])c2)CC1` [Compound 15a, 1-(3-(4-Fluorophenoxy)-5-nitrophenyl)-4-methylpiperazine], the IC50 under setting [2] was above 1000 nM.

`COc1ccc(C(=O)Cn2c(=O)n(CCCC(=O)N3CCCC3)c(=O)c3cc(Cl)ccc32)cc1Cl` [TZ62-053]: the concentration for half-maximal inhibition (IC50) (Table 5, read-out: IC50 S1PR2) was above 1000 nM. On the same count and under the same terms, for `COc1cc(OC)c(NC(=O)Cn2c(=O)n(C)c(=O)c3ccccc32)cc1Cl` [TZ62-084] the value was above 1000 nM; for `CC(C)C1(O)CCN(C(=O)Nc2cc(Oc3ccncc3)cc(C(F)(F)F)c2)CC1` [TZ51-061], above 1000 nM. On to `COc1cc(OC)c(NC(=O)Cn2c(=O)n(CC(=O)Nc3ccc(O)cc3)c(=O)c3ccccc32)cc1Cl` [Compound 2e], for which the IC50 under setting [2] amounted to 2.6 ± 0.3 nM. Consider `CCC(CC)CC1(O)CCN(C(=O)Nc2cc(OCCCF)cc(Oc3ccc(F)cc3)c2)CC1` [Compound 11b, 4-(2-Ethylbutyl)-N-(3-(4-fluorophenoxy)-5-(3-fluoropropoxy)phenyl)-4-hydroxypiperidine-1-carboxamide], for which the IC50 was above 1000 nM under setting [1] and above 1000 nM under setting [2].

In the case of `CNC(=O)c1ccc(Oc2cc(NC(=O)N3CC[C@@]4(O)CCCC[C@H]4C3)cc(Oc3ccc(F)cc3)c2)cc1` [TZ57-096], the IC50 (Table 5, read-out: IC50 S1PR2) is above 1000 nM.

`O=[N+]([O-])c1cc(Oc2ccc(F)cc2)cc(-n2cccn2)c1` [Compound 15b, 1-(3-(4-Fluorophenoxy)-5-nitrophenyl)-1H-pyrazole]: the IC50 under setting [2] was above 1000 nM. As for `COc1ccccc1NC(=O)Cn1c(=O)[nH]c2ccccc2c1=O` [TZ62-004], the IC50 (Table 5, read-out: IC50 S1PR2) is above 1000 nM.

For `CNC(=O)c1ccc(Oc2cc(NC(=O)N3CCC(C)(O)CC3)cc(C(F)(F)F)c2)cc1` [Compound 25a, 4-Hydroxy-4-methyl-N-(3-(4-(methylcarbamoyl)phenoxy)-5-(trifluoromethyl)phenyl)piperidine-1-carboxamide], the IC50 under setting [1] is above 1000 nM. As for `CCC(CC)CC1(O)CCN(C(=O)Nc2cc(OC)cc(C(F)(F)F)c2)CC1` [TZ59-046], where the note is “Table 5, read-out: IC50 S1PR2”, the IC50 was above 1000 nM. Still for that read-out and setting: for `CCC(CC)CC1(O)CCN(C(=O)Nc2cc(Sc3ccc(F)cc3)cc(Sc3ccc(S(C)(=O)=O)cc3)c2)CC1` [TZ57-158] the value was 67 ± 10 nM; for `CNC(=O)c1ccc(Oc2cc(NC(=O)N3CCOCC3)cc(C(F)(F)F)c2)cc1` [TZ51-019], above 1000 nM; for `CCC(CC)CC1(O)CCN(C(=O)Nc2ccc(Oc3ccc(F)cc3)cc2)CC1` [TZ57-103], above 1000 nM.

On to `CCC(CC)CC1(O)CCN(C(=O)Nc2cc(Oc3ccc(B4OC(C)(C)C(C)(C)O4)cc3)cc(Sc3ccc(S(C)(=O)=O)cc3)c2)CC1` [TZ57-150], for which, for the setting “Table 5, read-out: IC50 S1PR2”, the IC50 was above 1000 nM. In the case of `COc1cc(OC)c(NC(=O)Cn2c(=O)n(CCCC(=O)NC3CCCC3)c(=O)c3cc(Cl)ccc32)cc1Cl` [TZ62-091], the half-maximal inhibitory concentration (IC50) (Table 5, read-out: IC50 S1PR2) was above 1000 nM. The same measure, in the same setting: with `COc1ccc(C(=O)Cn2c(=O)n(CCCC(=O)NC3CCCC3)c(=O)c3ccccc32)cc1Cl` [TZ62-049] the figure was 396 ± 78 nM. `COc1cc(OC)c(NC(=O)Cn2c(=O)n(CC(=O)NCCOCCO)c(=O)c3ccccc32)cc1Cl` [Compound 2i]: under setting [3], the IC50 was determined as 91.4 ± 17.6 nM. Turning to `CNC(=O)c1ccc(Oc2cc(NC(=O)N3CCC(O)(C(C)C)CC3)cc(C(F)(F)F)c2)cc1` [TZ51-044], for the setting “Table 5, read-out: IC50 S1PR2”, the IC50 is above 1000 nM. Same read-out and setting: with `CC1(O)CCN(C(=O)Nc2cc(Oc3ccc(S(C)(=O)=O)cc3)cc(C(F)(F)F)c2)CC1` [TZ51-058] the figure was above 1000 nM; with `COc1cc(OC)c(NC(=O)CN2C(=O)N(CC(=O)Nc3ccccc3OC)Cc3ccccc32)cc1Cl` [TZ62-018], above 1000 nM; with `CNC(=O)Cn1c(=O)c2ccccc2n(CC(=O)Nc2cc(Cl)c(OC)cc2OC)c1=O` [TZ59-135, N-(5-Chloro-2,4-dimethoxyphenyl)-2-(3-(2-(methylamino)-2-oxoethyl)-2,4-dioxo-3,4-dihydroquinazolin-1(2H)-yl)acetamide], 376 ± 91 nM. In the case of `CNC(=O)Cn1c(=O)c2ccccc2n(CC(=O)Nc2cc(Cl)c(OC)cc2OC)c1=O` [Compound 2k], the IC50 under setting [3] turned out to be 376 ± 91 nM. As to `COc1ccccc1NC(=O)Cn1c(=O)c2ccccc2n(CC(=O)c2ccc(F)cc2)c1=O` [TZ62-016], the IC50 (Table 5, read-out: IC50 S1PR2) was above 1000 nM. The same measure, in the same setting: with `CC(C)CC1(O)CCN(C(=O)Nc2ccc(NC(=O)N3CCC(O)(CC(C)C)CC3)cc2)CC1` [TZ57-112] the figure was above 1000 nM; with `COc1cc(OC)c(NC(=O)Cn2c(=O)n(Cc3ccccc3)c(=O)c3ccccc32)cc1Cl` [TZ62-077], above 1000 nM. Turning to `CCC(CC)CC1(O)CCN(C(=O)Nc2cc(F)cc(C(O)c3ccc(S(C)(=O)=O)cc3)c2)CC1` (centres unmarked) [TZ59-080], the IC50 (Table 5, read-out: IC50 S1PR2) was above 1000 nM. On the same count and under the same terms, with `CC(C)CC1(O)CCN(C(=O)Nc2cc(Oc3ccc(F)cc3)cc(Oc3ccc(S(C)(=O)=O)cc3)c2)C1` (centres unmarked) [TZ57-120] the figure was 122 ± 29 nM; with `CCC(CC)CC1(O)CCN(C(=O)Nc2cc(C)cc(Oc3ccc(S(C)(=O)=O)cc3)c2)CC1` [TZ59-008], above 1000 nM; with `CNC(=O)c1ccc(Oc2cc(NC(=O)N3CC(N4CCN(C)CC4)C3)cc(C(F)(F)F)c2)cc1` [TZ51-112], above 1000 nM. Still for that read-out and setting: with `COc1cc(OC)c(NC(=O)CN2C(=O)N(CC(=O)O)Cc3ccccc32)cc1Cl` [TZ62-017] the figure was above 1000 nM. In the case of `CCC(CC)CC1(O)CCN(C(=O)Nc2cc(C(=O)c3ccc(S(C)(=O)=O)cc3)cc(C(F)(F)F)c2)CC1` [TZ59-092], for the setting “Table 5, read-out: IC50 S1PR2”, the IC50 came out at 700 ± 111 nM.
